Measured values published in ChEMBL document CHEMBL1201862, “PubChem BioAssay data set” (2004).
The source made the active and inactive calls.

Experiments:
[1] = target: Cytochrome P450 2D6 (Homo sapiens, UniProt P10635); assay: qHTS Assay for Inhibitors and Substrates of Cytochrome P450 2D6. [Related pubchem assays: 410 ]; format: ADME; details: read-out: Potency
[2] = target: Likely tRNA 2'-phosphotransferase (Candida albicans (strain SC5314 / ATCC MYA-2876) (Yeast), UniProt Q5A7N4); assay: inhibition of Candida TPT1 enzyme activity – biochemical, fluorescence polarization, dose response (AID 2160)
[3] = target: Glutathione-S-transferase (Schistosoma japonicum, UniProt Q26513); assay: GST-antibody interaction or FRET quenching – biochemical, TR-FRET, artefact control for Vif-APOBEC3G degradation inhibitor project, dose response (AID 1117362); format: functional
[4] = target: Guanyl-specific ribonuclease T1 (Aspergillus oryzae (strain ATCC 42149 / RIB 40), UniProt P00651); assay: inhibition of ribonuclease T1 activity – biochemical, fluorescence polarization, 1536-well, counter-screen for TPT1 inhibitor project, dose response (AID 2167)
[5] = viability loss in THP-1 monocytes – THP-1 cells, cytotoxicity control for Vif-APOBEC3G degradation inhibitor project, dose response (AID 1117359); format: functional; details: THP-1
[6] = target: Lysosomal acid glucosylceramidase (Homo sapiens, UniProt P04062); assay: Dose response cell-based high throughput screening assay to identify enhancers of beta-glucosidase activity. [Related pubchem assays: 784 ]; format: functional
[7] = target: Acyl-homoserine lactone acylase PvdQ (Pseudomonas aeruginosa (strain LESB58), UniProt Q9I194); assay: PvdQ acylase enzyme activity blockers – biochemical, fluorescence, plate reader and imaging, cherry-picks, dose response (AID 493231)
[8] = target: T1, Protein skinhead-1 (Caenorhabditis elegans, UniProt P34707); format: functional
T1 sequence (P34707 whole entry): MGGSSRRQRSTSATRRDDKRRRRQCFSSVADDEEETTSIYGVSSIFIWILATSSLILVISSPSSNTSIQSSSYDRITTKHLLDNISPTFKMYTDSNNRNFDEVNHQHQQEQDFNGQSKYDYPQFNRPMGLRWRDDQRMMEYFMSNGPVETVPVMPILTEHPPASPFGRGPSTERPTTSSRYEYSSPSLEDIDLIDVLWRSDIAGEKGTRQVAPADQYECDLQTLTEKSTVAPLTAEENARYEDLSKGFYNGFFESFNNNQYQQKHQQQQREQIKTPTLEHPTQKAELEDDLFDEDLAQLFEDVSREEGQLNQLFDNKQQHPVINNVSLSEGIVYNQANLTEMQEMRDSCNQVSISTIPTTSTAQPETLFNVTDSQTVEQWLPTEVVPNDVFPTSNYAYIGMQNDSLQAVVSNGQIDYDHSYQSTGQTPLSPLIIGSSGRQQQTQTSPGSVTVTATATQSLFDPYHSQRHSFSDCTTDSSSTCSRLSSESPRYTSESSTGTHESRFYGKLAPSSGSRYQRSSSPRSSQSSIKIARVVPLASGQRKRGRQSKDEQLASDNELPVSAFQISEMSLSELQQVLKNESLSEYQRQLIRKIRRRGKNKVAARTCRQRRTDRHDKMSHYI

[9] = target: T2, Ubiquitin-conjugating enzyme E2 N (Homo sapiens, UniProt P61088); format: functional
T2 sequence (P61088 whole entry): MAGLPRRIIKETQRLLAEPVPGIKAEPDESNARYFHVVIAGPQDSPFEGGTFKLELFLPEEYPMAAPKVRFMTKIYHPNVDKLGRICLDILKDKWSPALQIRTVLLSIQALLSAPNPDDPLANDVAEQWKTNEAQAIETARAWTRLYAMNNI

[10] = target: Transitional endoplasmic reticulum ATPase (Homo sapiens, UniProt P55072); assay: p97 ATPase inhibitors, dose response, biochemical (AID 1534)
[11] = viability of PTEN-deleted HCT116 cells – cell-based, HCT116 PTEN knockout, dose response (AID 1047); format: functional;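 also: HCT116 colon tumor cells with PTEN knocked out; cells exposed to compound for 60 hours before readout; potency for loss of cell viability measured by luminescence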
[12] = target: T2, Ubiquitin-conjugating enzyme E2 N; format: functional; remark: listed apart in the source
[13] = luciferase reporter signal suppression in cells – H4 neuroglioma cells, luminescence, dose response (AID 1990); format: functional, cell-based
[14] = NIH-3T3 fibroblast cytotoxicity, dose response, cytotoxicity control, cell-based, fluorescence, Alamar Blue, secondary assay (AID 2327); format: functional;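 also: NIH-3T3 mouse fibroblasts cultured with fluconazole at 8 µg/mL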
[15] = alpha-synuclein stem-loop luciferase translation blockers – H4 neuroglioma cells, luminescence, confirmation (AID 1988); format: functional, cell-based
[16] = viability of HCT116 lacking mutant beta-catenin – cell-based, human colon tumor, dose response (AID 1045); format: functional;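 also: HCT116 colon tumor cells with beta catenin knocked out; cells exposed to compound for 60 hours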
[17] = target: T3, Bcl-2-related protein A1 (Mus musculus, UniProt Q07440); format: functional;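 also: confirmatory dose–response counterscreen on Bfl-1, used to check hits from a UBC13 polyubiquitin inhibitor campaign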
T3 sequence (Q07440 whole entry): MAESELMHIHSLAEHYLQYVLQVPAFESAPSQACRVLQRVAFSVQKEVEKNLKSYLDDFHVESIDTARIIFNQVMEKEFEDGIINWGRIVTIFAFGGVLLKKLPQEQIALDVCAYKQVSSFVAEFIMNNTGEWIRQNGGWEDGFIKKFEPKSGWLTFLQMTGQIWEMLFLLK

[18] = target: Transitional endoplasmic reticulum ATPase (Homo sapiens, UniProt P55072, C522A); assay: C522A mutant p97 ATPase inhibitors, dose response, counter-screen for p97 inhibitor project, biochemical, luminescence (AID 1544)
[19] = target: T4, Calpain-2 catalytic subunit (Sus scrofa, UniProt P43367); assay: m-calpain protease blockers, concentration series – biochemical, fluorogenic peptide substrate, dose response (AID 1420); format: functional
T4 sequence (P43367 whole entry): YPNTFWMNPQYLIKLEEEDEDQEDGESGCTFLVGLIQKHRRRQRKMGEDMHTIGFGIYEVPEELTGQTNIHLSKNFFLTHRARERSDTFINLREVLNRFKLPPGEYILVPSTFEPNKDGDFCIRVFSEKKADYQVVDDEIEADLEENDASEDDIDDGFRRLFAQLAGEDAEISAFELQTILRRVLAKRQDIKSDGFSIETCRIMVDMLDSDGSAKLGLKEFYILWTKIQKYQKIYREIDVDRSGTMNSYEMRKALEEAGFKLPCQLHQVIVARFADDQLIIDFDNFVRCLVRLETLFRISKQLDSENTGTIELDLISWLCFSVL

[20] = Luminescence Cell-Based Dose Response HTS to Identify Inhibitors of 5'UTR Stem-Loop Driven Prion Protein mRNA Translation in H4 Neuroglioblastoma Cells. [Related pubchem assays: 1827 (Project Summary), 1813 (Primary HTS)]; format: functional

Likely tRNA 2'-phosphotransferase, sequence (Q5A7N4 whole entry): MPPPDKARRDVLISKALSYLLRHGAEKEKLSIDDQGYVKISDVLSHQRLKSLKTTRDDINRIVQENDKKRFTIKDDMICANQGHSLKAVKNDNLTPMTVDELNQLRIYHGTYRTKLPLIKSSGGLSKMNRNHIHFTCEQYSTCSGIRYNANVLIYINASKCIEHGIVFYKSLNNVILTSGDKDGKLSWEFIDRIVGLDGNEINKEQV
Transitional endoplasmic reticulum ATPase (Homo sapiens, UniProt P55072), sequence (P55072 whole entry): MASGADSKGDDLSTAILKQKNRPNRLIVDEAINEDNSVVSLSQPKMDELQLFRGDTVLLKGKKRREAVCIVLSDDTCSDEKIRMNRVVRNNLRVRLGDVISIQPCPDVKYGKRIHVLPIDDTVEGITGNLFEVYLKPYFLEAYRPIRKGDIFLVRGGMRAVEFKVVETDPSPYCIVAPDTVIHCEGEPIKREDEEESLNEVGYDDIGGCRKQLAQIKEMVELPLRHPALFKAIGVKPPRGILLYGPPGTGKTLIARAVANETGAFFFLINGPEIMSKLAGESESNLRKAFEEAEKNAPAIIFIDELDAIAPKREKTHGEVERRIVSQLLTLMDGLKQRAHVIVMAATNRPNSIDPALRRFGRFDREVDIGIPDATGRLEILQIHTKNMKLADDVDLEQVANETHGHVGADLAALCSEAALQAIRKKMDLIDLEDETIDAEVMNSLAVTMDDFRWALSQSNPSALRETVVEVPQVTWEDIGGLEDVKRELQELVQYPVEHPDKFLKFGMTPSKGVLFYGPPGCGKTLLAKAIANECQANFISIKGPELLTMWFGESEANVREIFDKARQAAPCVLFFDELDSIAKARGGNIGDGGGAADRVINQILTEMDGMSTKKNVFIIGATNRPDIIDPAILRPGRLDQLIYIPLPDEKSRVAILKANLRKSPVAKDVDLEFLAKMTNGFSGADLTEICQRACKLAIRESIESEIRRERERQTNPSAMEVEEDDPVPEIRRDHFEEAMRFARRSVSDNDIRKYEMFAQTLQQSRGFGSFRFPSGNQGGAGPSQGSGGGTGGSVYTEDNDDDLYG
Lysosomal acid glucosylceramidase, sequence (P04062 whole entry): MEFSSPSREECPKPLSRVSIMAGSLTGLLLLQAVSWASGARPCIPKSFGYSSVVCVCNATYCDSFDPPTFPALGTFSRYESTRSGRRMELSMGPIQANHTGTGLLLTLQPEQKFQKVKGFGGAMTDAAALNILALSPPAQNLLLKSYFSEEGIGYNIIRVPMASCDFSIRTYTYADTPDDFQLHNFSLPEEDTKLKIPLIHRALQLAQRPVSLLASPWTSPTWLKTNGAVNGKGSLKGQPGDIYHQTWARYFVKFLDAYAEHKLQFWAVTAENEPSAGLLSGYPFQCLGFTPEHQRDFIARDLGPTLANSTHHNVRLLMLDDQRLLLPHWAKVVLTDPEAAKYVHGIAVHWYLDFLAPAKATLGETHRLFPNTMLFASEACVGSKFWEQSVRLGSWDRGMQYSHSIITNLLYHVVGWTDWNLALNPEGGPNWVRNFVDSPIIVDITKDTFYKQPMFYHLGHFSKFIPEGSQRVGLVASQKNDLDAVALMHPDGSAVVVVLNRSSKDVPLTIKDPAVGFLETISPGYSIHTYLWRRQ
Cytochrome P450 2D6, sequence (P10635 whole entry): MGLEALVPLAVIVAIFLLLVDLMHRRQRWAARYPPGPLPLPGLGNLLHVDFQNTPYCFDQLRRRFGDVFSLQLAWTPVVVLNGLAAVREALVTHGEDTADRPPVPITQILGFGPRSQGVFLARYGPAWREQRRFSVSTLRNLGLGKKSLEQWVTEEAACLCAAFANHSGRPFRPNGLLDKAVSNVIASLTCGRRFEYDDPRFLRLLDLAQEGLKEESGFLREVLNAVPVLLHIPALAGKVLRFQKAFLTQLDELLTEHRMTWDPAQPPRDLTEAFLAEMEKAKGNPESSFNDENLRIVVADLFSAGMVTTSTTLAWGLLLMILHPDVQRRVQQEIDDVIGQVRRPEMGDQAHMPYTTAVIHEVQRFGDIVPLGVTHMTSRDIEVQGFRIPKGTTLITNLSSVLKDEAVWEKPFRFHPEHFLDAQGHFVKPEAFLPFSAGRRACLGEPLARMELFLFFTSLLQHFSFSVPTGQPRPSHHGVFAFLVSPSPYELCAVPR
Transitional endoplasmic reticulum ATPase (Homo sapiens, UniProt P55072, C522A), sequence (P55072 2-806 C522A limits assumed): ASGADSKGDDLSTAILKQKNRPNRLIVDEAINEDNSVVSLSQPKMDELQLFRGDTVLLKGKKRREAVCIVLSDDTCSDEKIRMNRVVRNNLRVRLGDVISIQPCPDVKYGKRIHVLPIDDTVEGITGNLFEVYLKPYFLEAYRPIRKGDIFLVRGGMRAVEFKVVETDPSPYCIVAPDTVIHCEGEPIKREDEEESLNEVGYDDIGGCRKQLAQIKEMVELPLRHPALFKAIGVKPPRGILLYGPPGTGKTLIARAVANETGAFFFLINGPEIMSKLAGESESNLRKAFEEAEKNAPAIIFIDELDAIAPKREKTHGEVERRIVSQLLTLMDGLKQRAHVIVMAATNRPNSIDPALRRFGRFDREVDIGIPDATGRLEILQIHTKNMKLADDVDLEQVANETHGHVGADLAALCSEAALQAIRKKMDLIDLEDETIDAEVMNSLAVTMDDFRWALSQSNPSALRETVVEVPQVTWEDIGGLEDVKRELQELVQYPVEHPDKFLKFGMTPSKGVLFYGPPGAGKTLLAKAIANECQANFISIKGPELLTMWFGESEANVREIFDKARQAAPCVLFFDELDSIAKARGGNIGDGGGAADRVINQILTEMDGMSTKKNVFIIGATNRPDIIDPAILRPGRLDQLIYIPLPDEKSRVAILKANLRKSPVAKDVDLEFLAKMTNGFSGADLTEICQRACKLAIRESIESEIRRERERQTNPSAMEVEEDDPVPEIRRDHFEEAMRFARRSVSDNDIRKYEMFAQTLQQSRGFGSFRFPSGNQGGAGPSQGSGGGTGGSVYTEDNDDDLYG
Guanyl-specific ribonuclease T1, sequence (P00651 whole entry): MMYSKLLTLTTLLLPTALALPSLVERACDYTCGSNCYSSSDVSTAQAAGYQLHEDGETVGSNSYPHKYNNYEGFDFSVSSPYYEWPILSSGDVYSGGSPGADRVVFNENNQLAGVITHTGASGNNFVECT
Glutathione-S-transferase, sequence (Q26513 whole entry): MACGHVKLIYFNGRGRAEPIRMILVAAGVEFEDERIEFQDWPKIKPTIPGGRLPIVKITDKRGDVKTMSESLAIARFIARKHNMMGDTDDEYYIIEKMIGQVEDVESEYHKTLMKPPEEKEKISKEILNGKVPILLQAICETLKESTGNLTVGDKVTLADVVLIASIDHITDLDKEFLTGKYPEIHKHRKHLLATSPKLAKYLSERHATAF
Acyl-homoserine lactone acylase PvdQ, sequence (Q9I194 24-193 limits assumed): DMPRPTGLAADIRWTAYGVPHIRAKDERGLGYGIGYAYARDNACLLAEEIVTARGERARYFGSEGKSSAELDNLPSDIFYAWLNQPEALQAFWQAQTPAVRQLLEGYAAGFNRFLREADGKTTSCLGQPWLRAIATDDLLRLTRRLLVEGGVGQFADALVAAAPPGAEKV
Acyl-homoserine lactone acylase PvdQ, sequence (Q9I194 217-762 limits assumed): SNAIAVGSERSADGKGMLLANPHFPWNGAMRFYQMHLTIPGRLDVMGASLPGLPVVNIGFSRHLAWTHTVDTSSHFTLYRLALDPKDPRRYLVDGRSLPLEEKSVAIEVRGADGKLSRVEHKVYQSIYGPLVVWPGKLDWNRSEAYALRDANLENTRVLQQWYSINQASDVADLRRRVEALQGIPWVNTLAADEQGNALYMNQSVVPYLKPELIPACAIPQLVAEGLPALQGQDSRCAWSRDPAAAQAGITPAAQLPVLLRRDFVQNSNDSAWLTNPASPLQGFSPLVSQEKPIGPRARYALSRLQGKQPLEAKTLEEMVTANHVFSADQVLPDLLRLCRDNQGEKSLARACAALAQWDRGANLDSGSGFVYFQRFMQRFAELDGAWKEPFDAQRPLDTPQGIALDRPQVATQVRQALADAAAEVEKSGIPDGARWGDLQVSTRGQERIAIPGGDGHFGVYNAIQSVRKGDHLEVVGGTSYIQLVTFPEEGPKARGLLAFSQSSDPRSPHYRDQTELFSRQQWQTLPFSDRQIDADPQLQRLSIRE

Structure (SMILES): COc1ccccc1CNc1cc(-c2ccccc2C(F)(F)F)ncn1
- AC50 [1]: 39.8 µM (inconclusive)

Structure (SMILES): CCN1CCN(c2cc(N3CCN(C(=O)c4ccco4)CC3)c3c4c(onc24)-c2ccccc2C3=O)CC1
- IC50 [2]: 10.7 µM (not active)
- IC50 [3]: > 100 µM (active)
- IC50 [4]: 7.8 µM (active)
- CC50 [5]: > 40 µM (active)

Structure (SMILES): CC(=O)N1CCc2cc(Br)cc(S(=O)(=O)NCCN3CCCCC3C)c21 (stereo not given)
- EC50 [6]: > 50 µM (not active)

Structure (SMILES): Clc1ccc(-c2nnc(-c3ccco3)o2)cc1
- AC50 [7]: 24.3 µM (active)
- IC50 [8]: 17.2 µM (active)

Structure (SMILES): N=C(N)N/N=C/c1ccc(OCc2ccc(Cl)cc2Cl)cc1
- IC50 [9]: 7.26 µM (active)
- IC50 [10]: > 50 µM (not active)
- EC50 [11]: 4.19 µM (active)
- IC50 [12]: 5.97 µM (active)
- EC50 [13]: > 120 µM (not active)
- EC50 [14]: 21 µM (inconclusive)
- EC50 [15]: > 120 µM (not active)
- EC50 [16]: 4.16 µM (active)
- IC50 [17]: 13 µM (active)
- IC50 [18]: > 50 µM (not active)
- IC50 [19]: 7.31 µM (not active)
- EC50 [20]: > 120 µM (not active)
